{"source": "ChEMBL document CHEMBL4257490", "about": "“Development of a peptide-based bifunctional chelator conjugated to a cytotoxic drug for the treatment of melanotic melanoma” (Medchemcomm, 2018)", "key": {"[1]": {"experiment": "Drug uptake in stomach of Balb/c mouse allografted with mouse B16F10 cells using 99mTc(CO)3-labeled compound at 10 to 12 MBq/kg, iv measured at 4 hrs", "assay_type": "ADME, organism-based", "conditions": "in vivo"}, "[2]": {"experiment": "Drug uptake in muscle of Balb/c mouse allografted with mouse B16F10 cells using 99mTc(CO)3-labeled compound at 10 to 12 MBq/kg, iv measured at 4 hrs", "assay_type": "ADME, organism-based, Muscle tissue", "conditions": "in vivo"}, "[3]": {"experiment": "Drug uptake in mouse B16F10 cells using 99mTc(CO)3-labeled compound at 15 to 20 MBq/ml after 30 mins by gamma scintillation counting method relative to total added activity", "assay_type": "ADME, cell-based", "conditions": "b16-f10, 0.5 h"}, "[4]": {"experiment": "Hemolytic activity in rat erythrocytes at 100 uM after 1 hr relative to control", "assay_type": "ADME, cell-based, Erythrocyte", "conditions": "read-out: Activity"}, "[5]": {"experiment": "Drug uptake in urine of Balb/c mouse allografted with mouse B16F10 cells using 99mTc(CO)3-labeled compound at 10 to 12 MBq/kg, iv measured at 4 hrs", "assay_type": "ADME, organism-based", "conditions": "in vivo"}, "[6]": {"experiment": "Drug uptake in intestine of Balb/c mouse allografted with mouse B16F10 cells using 99mTc(CO)3-labeled compound at 10 to 12 MBq/kg, iv measured at 2 hrs", "assay_type": "ADME, organism-based", "conditions": "in vivo"}, "[7]": {"experiment": "Drug uptake in tumor muscle of Balb/c mouse allografted with mouse B16F10 cells using 99mTc(CO)3-labeled compound at 10 to 12 MBq/kg, iv measured at 2 hrs", "assay_type": "ADME, organism-based", "conditions": "in vivo"}, "[8]": {"experiment": "Drug uptake in heart of Balb/c mouse allografted with mouse B16F10 cells using 99mTc(CO)3-labeled compound at 10 to 12 MBq/kg, iv measured at 2 hrs", "assay_type": "ADME, organism-based", "conditions": "in vivo"}, "[9]": {"experiment": "Drug uptake in stomach of Balb/c mouse allografted with mouse B16F10 cells using 99mTc(CO)3-labeled compound at 10 to 12 MBq/kg, iv measured at 2 hrs", "assay_type": "ADME, organism-based", "conditions": "in vivo"}, "B16-F10 [10]": {"test_system": "B16-F10", "experiment": "Antitumor activity against mouse B16F10 cells allografted in Balb/c mouse assessed as tumor growth inhibition at 25 mg/kg, iv administered thrice weekly for 21 days starting on day 10 post tumor implantation relative to control", "assay_type": "functional", "conditions": "read-out: TGI"}, "[11]": {"experiment": "n-Octanol-phosphate buffer partition co-efficient, log P of 99mTc(CO)3-labeled compound at 2 to 3 KBq after 1 min by gamma scintillation counting method", "assay_type": "physicochemical"}, "[12]": {"experiment": "Drug uptake in mouse B16F10 cells using 99mTc(CO)3-labeled compound at 15 to 20 MBq/ml after 30 mins by gamma scintillation counting method", "assay_type": "ADME, cell-based", "conditions": "b16-f10, 0.5 h"}, "B16-F10 [13]": {"test_system": "B16-F10", "experiment": "Ratio of drug uptake in mouse B16F10 cells at 20 ug/ml after 4 hrs by flow cytometric method to drug uptake in mouse B16F10 cells at 20 ug/ml after 30 mins by flow cytometric method", "assay_type": "ADME, cell-based"}, "[14]": {"experiment": "Drug uptake in liver of Balb/c mouse allografted with mouse B16F10 cells using 99mTc(CO)3-labeled compound at 10 to 12 MBq/kg, iv measured at 2 hrs", "assay_type": "ADME, organism-based", "conditions": "in vivo"}, "[15]": {"experiment": "Drug uptake in urinary bladder of Balb/c mouse allografted with mouse B16F10 cells using 99mTc(CO)3-labeled compound at 4 to 8 MBq, iv measured at 4 hrs by scintigraphic imaging method", "assay_type": "ADME, organism-based", "conditions": "in vivo"}, "[16]": {"experiment": "Stability in saline assessed as parent compond remaining using 99mTc(CO)3-labeled compound after 24 hrs by TLC method", "assay_type": "physicochemical", "conditions": "read-out: Stability"}, "B16-F10 [17]": {"test_system": "B16-F10", "experiment": "Cytotoxicity against mouse B16F10 cells assessed as decrease in cell viability after 72 hrs by MTT assay", "assay_type": "functional, cell-based", "conditions": "B16-F10, 72 h"}, "B16-F10 [18]": {"test_system": "B16-F10", "experiment": "Antitumor activity against mouse B16F10 cells allografted in Balb/c mouse assessed as decrease in formation of new blood vessels in tumor at 25 mg/kg, iv administered thrice weekly for 21 days starting on day 10 post tumor implantation by haematoxylin and eosin staining-based method", "assay_type": "functional, organism-based"}, "[19]": {"experiment": "Drug uptake in muscle of Balb/c mouse allografted with mouse B16F10 cells using 99mTc(CO)3-labeled compound at 10 to 12 MBq/kg, iv measured at 2 hrs", "assay_type": "ADME, organism-based, Muscle tissue", "conditions": "in vivo"}, "[20]": {"experiment": "Drug uptake in kidney of Balb/c mouse allografted with mouse B16F10 cells using 99mTc(CO)3-labeled compound at 10 to 12 MBq/kg, iv measured at 4 hrs", "assay_type": "ADME, organism-based", "conditions": "in vivo"}, "[21]": {"experiment": "Drug uptake in gastrointestinal tract of Balb/c mouse allografted with mouse B16F10 cells using 99mTc(CO)3-labeled compound at 4 to 8 MBq, iv measured at 4 hrs by scintigraphic imaging method", "assay_type": "ADME, organism-based", "conditions": "in vivo"}, "B16-F10 [22]": {"test_system": "B16-F10", "experiment": "Induction of apoptosis in mouse B16F10 cells assessed as necrotic cells at IC50 after 72 hrs by annexin V-FITC/propidium iodide staining-based flow cytometric method relative to control", "assay_type": "functional"}, "[23]": {"experiment": "Drug uptake in mouse B16F10 cells using 99mTc(CO)3-labeled compound at 15 to 20 MBq/ml after 240 mins by gamma scintillation counting method", "assay_type": "ADME, cell-based", "conditions": "b16-f10, 4 h"}, "[24]": {"experiment": "Drug uptake in mouse B16F10 cells using 5,6-carboxyfluorescein-labeled compound at 20 ug/ml after 4 hrs by DAPI staining-based fluorescence microscopic method", "assay_type": "ADME, cell-based", "conditions": "b16-f10, 4 h"}, "[25]": {"experiment": "Drug uptake in intestine of Balb/c mouse allografted with mouse B16F10 cells using 99mTc(CO)3-labeled compound at 10 to 12 MBq/kg, iv measured at 4 hrs", "assay_type": "ADME, organism-based", "conditions": "in vivo"}, "[26]": {"experiment": "Ratio of drug level in tumor to blood of Balb/c mouse allografted with mouse B16F10 cells using 99mTc(CO)3-labeled compound at 10 to 12 MBq/kg, iv measured at 4 hrs", "assay_type": "ADME, organism-based, Tumor/tissue"}, "B16-F10 [27]": {"test_system": "B16-F10", "experiment": "Induction of apoptosis in mouse B16F10 cells assessed as nuclear fragmentation at IC50 after 72 hrs by DAPI staining-based fluorescence microscopic method", "assay_type": "functional, cell-based"}, "[28]": {"experiment": "Drug uptake in blood of Balb/c mouse allografted with mouse B16F10 cells using 99mTc(CO)3-labeled compound at 10 to 12 MBq/kg, iv measured at 2 hrs", "assay_type": "ADME, organism-based", "conditions": "in vivo"}, "Mus musculus": {"test_system": "Mus musculus", "experiment": "Toxicity in mouse B16F10 cells allografted Balb/c mouse assessed as effect on body weight at 25 mg/kg, iv administered thrice weekly for 21 days starting on day 10 post tumor implantation (reference value: 30.52 +/- 2.9 g)", "assay_type": "organism-based", "conditions": "in vivo, 504 h"}, "[29]": {"experiment": "Hemolytic activity in rat erythrocytes up to 50 uM after 1 hr relative to control", "assay_type": "ADME, cell-based, Erythrocyte", "conditions": "read-out: Activity"}, "[30]": {"experiment": "Drug uptake in urine of Balb/c mouse allografted with mouse B16F10 cells using 99mTc(CO)3-labeled compound at 10 to 12 MBq/kg, iv measured at 2 hrs", "assay_type": "ADME, organism-based", "conditions": "in vivo"}, "[31]": {"experiment": "Drug uptake in spleen of Balb/c mouse allografted with mouse B16F10 cells using 99mTc(CO)3-labeled compound at 10 to 12 MBq/kg, iv measured at 4 hrs", "assay_type": "ADME, organism-based", "conditions": "in vivo"}, "[32]": {"experiment": "Drug uptake in blood of Balb/c mouse allografted with mouse B16F10 cells using 99mTc(CO)3-labeled compound at 10 to 12 MBq/kg, iv measured at 4 hrs", "assay_type": "ADME, organism-based", "conditions": "in vivo"}, "[33]": {"experiment": "Drug uptake in kidney of Balb/c mouse allografted with mouse B16F10 cells using 99mTc(CO)3-labeled compound at 4 to 8 MBq, iv measured at 4 hrs by scintigraphic imaging method", "assay_type": "ADME, organism-based", "conditions": "in vivo"}, "[34]": {"experiment": "Drug uptake in tumor muscle of Balb/c mouse allografted with mouse B16F10 cells using 99mTc(CO)3-labeled compound at 10 to 12 MBq/kg, iv measured at 4 hrs", "assay_type": "ADME, organism-based", "conditions": "in vivo"}}, "note": "Activity calls are given as the source filed them. The calls are words filed in the database; no cut-off is given here. Residues, ends and D or L forms follow the SMILES beside them. *: point of attachment. X1 = O=c1nc(N*)ccn1[C@@H]1O[C@H](CO)[C@@H](O)C1(F)F", "data": [{"smiles": "NCCCC[C@H](NC(=O)CNC(=O)[C@H](Cc1cnc[nH]1)NC(=O)[C@H](CCCCN)NC(=O)[C@H](Cc1ccc(O)cc1)NC(=O)[C@@H](N)Cc1cnc[nH]1)C(=O)N[C@@H](CC(=O)Nc1ccn([C@@H]2O[C@H](CO)[C@@H](O)C2(F)F)c(=O)n1)C(N)=O", "note": "(H-HYKHGKD(X1)-NH2)", "values": [{"measurement": "Drug uptake", "setting": "[1]", "value": 0.17, "unit": "% ID/g"}, {"measurement": "Drug uptake", "setting": "[2]", "value": 0.15, "unit": "% ID/g"}, {"measurement": "Drug uptake", "setting": "[3]", "value": 4.99, "unit": "%"}, {"measurement": "hemolysis at 1 h, 100 µM", "setting": "[4]", "value": "7 to 9", "unit": "%"}, {"measurement": "Drug uptake", "setting": "[5]", "value": 48.21, "unit": "%ID/ml"}, {"measurement": "Drug uptake", "setting": "[6]", "value": 8.51, "unit": "% ID/g"}, {"measurement": "Drug uptake", "setting": "[7]", "value": 1.71, "unit": "% ID/g"}, {"measurement": "Drug uptake", "setting": "[8]", "value": 0.06, "unit": "% ID/g"}, {"measurement": "Drug uptake", "setting": "[9]", "value": 0.25, "unit": "% ID/g"}, {"measurement": "inhibition in vivo at 25 mg/kg", "setting": "B16-F10 [10]", "value": 62, "unit": "%"}, {"measurement": "logP at 1 min", "setting": "[11]", "value": -0.629}, {"measurement": "Drug uptake", "setting": "[12]", "value": 42.34, "unit": "%"}, {"measurement": "Ratio", "setting": "B16-F10 [13]", "value": 4.4}, {"measurement": "Drug uptake", "setting": "[14]", "value": 17.65, "unit": "% ID/g"}, {"measurement": "Drug uptake", "setting": "[15]", "value": "Active"}, {"measurement": "remaining at 24 h", "setting": "[16]", "value": "≥ 92", "unit": "%"}, {"measurement": "IC50", "setting": "B16-F10 [17]", "value": 120, "unit": "nM"}, {"measurement": "Activity", "setting": "B16-F10 [18]", "value": "Active"}, {"measurement": "Drug uptake", "setting": "[19]", "value": 0.17, "unit": "% ID/g"}, {"measurement": "Drug uptake", "setting": "[20]", "value": 16.25, "unit": "% ID/g"}, {"measurement": "Drug uptake", "setting": "[21]", "value": "Active"}, {"measurement": "Activity", "setting": "B16-F10 [22]", "value": "12 - 14%"}, {"measurement": "Drug uptake", "setting": "[23]", "value": 80, "unit": "%"}, {"measurement": "Drug uptake", "setting": "[24]", "value": "Active"}, {"measurement": "Drug uptake", "setting": "[25]", "value": 6.28, "unit": "% ID/g"}, {"measurement": "Kp at 4 h", "setting": "[26]", "value": 1.77}, {"measurement": "Activity", "setting": "B16-F10 [27]", "value": "Active"}, {"measurement": "Drug uptake", "setting": "[28]", "value": 1.79, "unit": "%ID/ml"}, {"measurement": "Activity", "setting": "Mus musculus", "value": 25.15, "unit": "g"}, {"measurement": "hemolysis at 1 h", "setting": "[29]", "value": "5 to 6", "unit": "%"}, {"measurement": "Drug uptake", "setting": "[30]", "value": 41.21, "unit": "%ID/ml"}, {"measurement": "Drug uptake", "setting": "[31]", "value": 0.45, "unit": "% ID/g"}, {"measurement": "Drug uptake", "setting": "[32]", "value": 1.58, "unit": "%ID/ml"}, {"measurement": "Drug uptake", "setting": "[33]", "value": "Active"}, {"measurement": "Drug uptake", "setting": "[34]", "value": 2.81, "unit": "% ID/g"}]}]}
